Laboratory results published in patent US9850283B2, “Macrocyclic inhibitors of the PD-1/PD-L1 and CD80(B7-1)/PD-L1 protein/protein interactions” (BRISTOL-MYERS SQUIBB COMPANY, priority 2013, dated 2017).
Where two headings read alike, the source gives them in different places. Starred links: 1 amine or outer side, 2 acyl side, 3 side chain; linkers in the order of their positions; H or OH if unused. Positions of bridges follow the written chain, without caps; N, C: chain ends. Non-standard residues stand in square brackets, D forms with d. Residues, ends and D or L forms follow the SMILES beside them. ξ: configuration not given here. X13 = COc1ccc2c(O[C@@H]3C[C@@H](C(=O)[*:2])N([*:1])C3)nccc2c1; Ala(indol-4-yl) = N[C@@H](Cc1cccc2[nH]ccc12)C(=O)O; Tyr(3,5-Br2) = N[C@@H](Cc1cc(Br)c(O)c(Br)c1)C(=O)O; NMe2Nal = CN[C@@H](Cc1ccc2ccccc2c1)C(=O)O; Phe(3-Me) = Cc1cccc(C[C@H](N)C(=O)O)c1; Bta = N[C@@H](Cc1csc2ccccc12)C(=O)O; Hyp = O=C(O)[C@@H]1C[C@@H](O)CN1; NMeF = CN[C@@H](Cc1ccccc1)C(=O)O; 2Pal = N[C@@H](Cc1ccccn1)C(=O)O; 4Pal = N[C@@H](Cc1ccncc1)C(=O)O; dNMeNle = CCCC[C@@H](NC)C(=O)O; AllylGly = C=CC[C@H](N)C(=O)O; NMeNle = CCCC[C@H](NC)C(=O)O; NMeA = CN[C@@H](C)C(=O)O; Orn = NCCC[C@H](N)C(=O)O; dDap = NC[C@@H](N)C(=O)O; Dab = NCC[C@H](N)C(=O)O; Dap = NC[C@H](N)C(=O)O; ξP = O=C(O)C1CCCN1; Sar = CNCC(=O)O

Assays:
[1] = biological target: T1, LK35.2-hPD-L1 cells / PE-labeled PD-1-Ig (Homo sapiens, UniProt Q9NZQ7); assay: LK35.2-hPD-L1 cell binding high-content screening assay; type: cell-based; conditions: cluster symbol, read-out: CBA IC50 cluster
T1 construct: expressed in transfected cells; host or cells: LK35.2 mouse B cell line
T1 sequence (Q9NZQ7 19-290): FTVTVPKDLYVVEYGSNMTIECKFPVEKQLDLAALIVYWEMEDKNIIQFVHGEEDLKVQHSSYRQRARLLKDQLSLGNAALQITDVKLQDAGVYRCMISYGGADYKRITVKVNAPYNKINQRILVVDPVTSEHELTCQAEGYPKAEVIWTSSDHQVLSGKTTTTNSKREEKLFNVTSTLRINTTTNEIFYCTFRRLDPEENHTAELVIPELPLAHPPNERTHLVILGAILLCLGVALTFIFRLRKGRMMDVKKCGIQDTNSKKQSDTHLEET
Method in brief: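 Fluorescent PD-1-Ig binding to PD-L1-expressing LK35.2 cells, imaged after washing. Conditions: 1 nM PE-PD-1-Ig, 37 °C, 1 h, RPMI with 10% fetal calf serum.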

[2] = biological target: T2, Human PD-L1/PD-1 (Homo sapiens, UniProt Q9NZQ7); assay: HTRF PD-1-Ig/PD-L1-His binding assay (human PD-L1); conditions: cluster symbol; read-out: HTRF IC50 cluster
T2 construct: made in house; host or cells: HEK293T
T2 sequence (Q9NZQ7 with tags, fused parts or gaps): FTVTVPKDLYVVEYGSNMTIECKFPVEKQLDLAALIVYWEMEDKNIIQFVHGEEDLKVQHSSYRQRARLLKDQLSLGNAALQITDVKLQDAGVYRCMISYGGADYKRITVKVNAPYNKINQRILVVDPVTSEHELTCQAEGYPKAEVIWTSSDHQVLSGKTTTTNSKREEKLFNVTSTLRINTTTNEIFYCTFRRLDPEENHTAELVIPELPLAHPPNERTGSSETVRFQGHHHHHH
Method in brief: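 Soluble PD-1-Ig binding to PD-L1-His measured by HTRF in dPBS with 0.1% BSA and 0.05% Tween-20. Detection used europium cryptate anti-Ig antibody (1 nM final) and APC anti-His antibody (20 nM final) added on top of the binding reaction.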

[3] = cell binding assay, cell line not given
[4] = cell line of CBA not given (LK35.2-hPD-L1 or 293T-hPD-L1)

Row | Compound | IC50 [1, 3] [nM] | IC50 [2] [nM] | IC50 [1, 4] [nM]
1 | CCCC[C@H]1C(=O)N(C)CC(=O)N[C@@H](CC(N)=O)C(=O)N[C@@H](C(C)C)C(=O)N(C)[C@@H](Cc2ccccc2)C(=O)N[C@@H](Cc2ccc(O)cc2)C(=O)N(C)CC(=O)N[C@@H](Cc2c[nH]c3ccccc23)C(=O)N[C@@H](Cc2ccc(O)cc2)C(=O)N[C@@H](CCCN)C(=O)N[C@H](C(=O)NCC(N)=O)CSCC(=O)N[C@@H](Cc2ccccc2)C(=O)N[C@@H](Cc2ccncc2)C(=O)N1C [Example 3610] ({CH2CO}-F[4Pal][NMeNle][Sar]NV[NMeF]Y[Sar]WY[Orn]CG-NH2; thioether N-13) | 4.78 to 72.9 | 6.76 to 30.3 | 
2 | CCCC[C@H]1C(=O)N(C)[C@@H](CCCC)C(=O)N[C@@H](CC(C)C)C(=O)N[C@H](C(=O)NCC(N)=O)CSCC(=O)N[C@@H](Cc2ccc(O)cc2)C(=O)N(C)[C@@H](C)C(=O)N[C@@H](CC(N)=O)C(=O)N2CCC[C@H]2C(=O)N[C@@H](CN)C(=O)N[C@@H](CC(C)C)C(=O)N2C[C@H](Oc3nccc4cc(OC)ccc34)C[C@H]2C(=O)N[C@@H](Cc2c[nH]c3ccccc23)C(=O)N[C@@H](CCN)C(=O)N[C@@H](Cc2c[nH]c3ccccc23)C(=O)N1C [Example 6048] ({CH2CO}-Y[NMeA]NP[Dap]L[X13]W[Dab]W[NMeNle][NMeNle]LCG-NH2; thioether N-14) | 4.78 to 72.9 | 6.76 to 30.3 | 
3 | CCCC[C@H]1C(=O)N(C)CC(=O)N[C@@H](CC(=O)O)C(=O)N[C@@H](C(C)C)C(=O)N(C)[C@@H](Cc2ccccc2)C(=O)N[C@@H](Cc2ccc(O)cc2)C(=O)N2CCC[C@H]2C(=O)N[C@@H](Cc2c[nH]c3ccccc23)C(=O)N[C@@H](Cc2ccc(O)cc2)C(=O)N[C@@H](CC(C)C)C(=O)N[C@H](C(=O)NCC(N)=O)CSCC(=O)N[C@@H](Cc2ccccc2)C(=O)N(C)[C@@H](Cc2ccccc2)C(=O)N1C [Example 3069] (HELM PEPTIDE1{[O=C(C[*:3])[*:2]].F.[meF].[CCCC[C@@H](C(=O)[*:2])N(C)[*:1]].[Sar].D.V.[meF].Y.P.W.Y.L.C.G.[am]}$PEPTIDE1,PEPTIDE1,1:R3-14:R3$$$V2.0) |  | > 30.5 | > 74.3
4 | CCCC[C@H]1C(=O)N(C)CC(=O)N[C@@H](CC(N)=O)C(=O)N[C@@H](C(C)C)C(=O)N(C)[C@@H](Cc2ccccc2)C(=O)N[C@@H](Cc2ccc(O)cc2)C(=O)N(C)CC(=O)N[C@@H](Cc2c[nH]c3ccccc23)C(=O)N[C@@H](Cc2ccc(O)cc2)C(=O)N[C@@H](CCCN)C(=O)N[C@H](C(=O)NCC(N)=O)CSCC(=O)N[C@@H](Cc2ccccc2)C(=O)N(C)[C@@H](Cc2ccc3ccccc3c2)C(=O)N1C [Example 3603] ({CH2CO}-F[NMe2Nal][NMeNle][Sar]NV[NMeF]Y[Sar]WY[Orn]CG-NH2; thioether N-13) | 4.78 to 72.9 | 6.76 to 30.3 | 
5 | CCCC[C@H]1C(=O)N(C)[C@@H](CCCC)C(=O)N[C@@H](C)C(=O)N[C@H](C(=O)NCC(=O)O)CSCC(=O)N[C@@H](Cc2ccc(O)cc2)C(=O)N(C)[C@@H](C)C(=O)N[C@@H](CC(N)=O)C(=O)N2CCC[C@H]2C(=O)N[C@@H](Cc2cnc[nH]2)C(=O)N[C@@H](CC(C)C)C(=O)N[C@@H](CCCN)C(=O)N[C@@H](Cc2c[nH]c3ccccc23)C(=O)N[C@@H](CO)C(=O)N[C@@H](Cc2csc3ccccc23)C(=O)N1C [Example 1153] |  | > 30.5 | 4.78 to 72.9
6 | CCCC[C@@H]1C(=O)N(C)[C@H](CCCC)C(=O)N[C@@H](C)C(=O)N[C@@H](C(=O)NCC(N)=O)CSCC(=O)N[C@@H](Cc2ccc(O)cc2)C(=O)N2CCCC2C(=O)N[C@H](CC(=O)O)C(=O)N2CCC[C@H]2C(=O)N[C@H](CN)C(=O)N[C@@H](CCC(=O)O)C(=O)N2CCCC2C(=O)N[C@H](Cc2c[nH]c3ccccc23)C(=O)N[C@@H](CCN)C(=O)N[C@@H](Cc2c[nH]c3ccccc23)C(=O)N1C (stereo partly drawn) [Example 1209] ({CH2CO}-Y[ξP][dD]P[dDap]E[ξP][dW][Dab]W[dNMeNle][dNMeNle]A[dC]G-NH2; thioether N-14) |  | 6.76 to 30.3 | 4.78 to 72.9
7 | CCCC[C@H]1C(=O)N(C)[C@@H](CCCC)C(=O)N[C@@H](CCCNC(=N)N)C(=O)N[C@H](C(=O)NCC(N)=O)CSCC(=O)N[C@@H](Cc2cccc(C)c2)C(=O)N(C)[C@@H](C)C(=O)N[C@@H](CC(N)=O)C(=O)N2CCC[C@H]2C(=O)N[C@@H](Cc2cnc[nH]2)C(=O)N[C@@H](CC(C)C)C(=O)N2C[C@H](O)C[C@H]2C(=O)N[C@@H](Cc2c[nH]c3ccccc23)C(=O)N[C@@H](CO)C(=O)N[C@@H](Cc2c[nH]c3ccccc23)C(=O)N1C [Example 7057] ({CH2CO}-[Phe(3-Me)][NMeA]NPHL[Hyp]WSW[NMeNle][NMeNle]RCG-NH2; thioether N-14) | 4.78 to 72.9 | 0.385 to 6.74 | 
8 | C=CC[C@@H]1NC(=O)[C@H](Cc2c[nH]c3ccccc23)NC(=O)[C@@H]2CCCN2C(=O)[C@H](CC(C)C)NC(=O)[C@H](Cc2c[nH]cn2)NC(=O)[C@@H]2CCCN2C(=O)[C@H](CC(N)=O)NC(=O)[C@H](C)N(C)C(=O)[C@H](Cc2ccccn2)NC(=O)CSC[C@@H](C(=O)NCC(N)=O)NC(=O)[C@H](CC=C)NC(=O)[C@H](CCCC)N(C)C(=O)[C@H](CCCC)N(C)C(=O)[C@H](Cc2c[nH]c3ccccc23)NC1=O [Example 7023] ({CH2CO}-[2Pal][NMeA]NPHLPW[AllylGly]W[NMeNle][NMeNle][AllylGly]CG-NH2; thioether N-14) | > 74.3 | > 30.5 | 
9 | C=CCCCC[C@H]1C(=O)N(C)[C@@H](CCCCC=C)C(=O)N[C@@H](CCCNC(=N)N)C(=O)N[C@H](C(=O)NCC(N)=O)CSCC(=O)N[C@@H](Cc2ccccc2)C(=O)N(C)[C@@H](C)C(=O)N[C@@H](CC(N)=O)C(=O)N2CCC[C@H]2C(=O)N[C@@H](Cc2cnc[nH]2)C(=O)N[C@@H](CC(C)C)C(=O)N(C)CC(=O)N[C@@H](Cc2c[nH]c3ccccc23)C(=O)N[C@@H](CO)C(=O)N[C@@H](Cc2c[nH]c3ccccc23)C(=O)N1C [Example 1043] |  | 6.76 to 30.3 | 4.78 to 72.9
10 | CCCC[C@H]1C(=O)N(C)CC(=O)N[C@@H](CC(=O)O)C(=O)N[C@@H](C(C)C)C(=O)N(C)[C@@H](Cc2ccccc2)C(=O)N[C@@H](Cc2ccc(O)cc2)C(=O)N(C)CC(=O)N[C@@H](Cc2c[nH]c3ccccc23)C(=O)N[C@@H](Cc2ccc(O)cc2)C(=O)N[C@@H](CC(C)C)C(=O)N[C@H](C(=O)NCC(N)=O)CSCC(=O)N[C@@H](Cc2cccc3[nH]ccc23)C(=O)N(C)[C@@H](Cc2ccccc2)C(=O)N1C [Example 3103] ({CH2CO}-[Ala(indol-4-yl)][NMeF][NMeNle][Sar]DV[NMeF]Y[Sar]WYLCG-NH2; thioether N-13) |  | > 30.5 | > 74.3
11 | CCCC[C@H]1C(=O)N(C)CC(=O)N[C@@H](CC(=O)O)C(=O)N[C@@H](C(C)C)C(=O)N(C)[C@@H](Cc2ccccc2)C(=O)N[C@@H](Cc2ccc(O)cc2)C(=O)N(C)CC(=O)N[C@@H](Cc2c[nH]c3ccccc23)C(=O)N[C@@H](Cc2cc(Br)c(O)c(Br)c2)C(=O)N[C@@H](CC(C)C)C(=O)N[C@H](C(=O)NCC(N)=O)CSCC(=O)N[C@@H](Cc2ccccc2)C(=O)N(C)[C@@H](Cc2ccccc2)C(=O)N1C [Example 3112] ({CH2CO}-F[NMeF][NMeNle][Sar]DV[NMeF]Y[Sar]W[Tyr(3,5-Br2)]LCG-NH2; thioether N-13) |  | > 30.5 | > 74.3
12 | CCCC[C@H]1C(=O)N(C)CC(=O)N[C@@H](CC(=O)O)C(=O)N[C@@H](C(C)C)C(=O)N(C)[C@@H](Cc2ccccc2)C(=O)N[C@@H](Cc2ccc(O)cc2)C(=O)N2CCC[C@@H]2C(=O)N[C@@H](Cc2c[nH]c3ccccc23)C(=O)N[C@@H](Cc2ccc(O)cc2)C(=O)N[C@@H](CC(C)C)C(=O)N[C@H](C(=O)NCC(N)=O)CSCC(=O)N[C@@H](Cc2ccccc2)C(=O)N(C)[C@@H](Cc2ccccc2)C(=O)N1C [Example 3562] (HELM PEPTIDE1{[O=C(C[*:3])[*:2]].F.[meF].[CCCC[C@@H](C(=O)[*:2])N(C)[*:1]].[Sar].D.V.[meF].Y.[dP].W.Y.L.C.G.[am]}$PEPTIDE1,PEPTIDE1,1:R3-14:R3$$$V2.0) | 0.158 to 4.71 | 6.76 to 30.3 | 
13 | CCCC[C@H]1C(=O)N(C)[C@@H](CCCC)C(=O)N[C@@H](CCCN)C(=O)N[C@H](C(=O)NCC(N)=O)CSCC(=O)N[C@@H](Cc2ccc(O)cc2)C(=O)N2CCCC[C@H]2C(=O)N[C@@H](CC(N)=O)C(=O)N2CCC[C@H]2C(=O)N[C@@H](Cc2cnc[nH]2)C(=O)N[C@@H](CC(C)C)C(=O)N2C[C@H](O)C[C@H]2C(=O)N[C@@H](Cc2c[nH]c3ccccc23)C(=O)N[C@@H](CO)C(=O)N[C@@H](Cc2c[nH]c3ccccc23)C(=O)N1C [Example 1177] |  | 0.385 to 6.74 | 0.158 to 4.71
14 | CCCC[C@H]1C(=O)N(C)[C@@H](CCCC)C(=O)N[C@@H](CCCNC(=N)N)C(=O)N[C@H](C(=O)NCC(N)=O)CSCC(=O)N[C@@H](Cc2ccc(O)cc2)C(=O)N(C)[C@@H](C)C(=O)N[C@@H](CCN)C(=O)N2CCC[C@H]2C(=O)N[C@@H](CO)C(=O)N[C@@H](CCC(=O)O)C(=O)N2C[C@H](O)C[C@H]2C(=O)N[C@@H](Cc2c[nH]c3ccccc23)C(=O)N[C@@H](CO)C(=O)N[C@@H](Cc2c[nH]c3ccccc23)C(=O)N1C [Example 5130] ({CH2CO}-Y[NMeA][Dab]PSE[Hyp]WSW[NMeNle][NMeNle]RCG-NH2; thioether N-14) | 0.158 to 4.71 | 6.76 to 30.3 | 
15 | CCCC[C@H]1C(=O)N(C)[C@@H](CCCC)C(=O)N[C@@H](CCCNC(=N)N)C(=O)N[C@H](C(=O)NCC(N)=O)CSCC(=O)N[C@@H](Cc2ccc(O)cc2)C(=O)N(C)[C@@H](C)C(=O)N[C@@H](CC(N)=O)C(=O)N[C@@H](Cc2cnc[nH]2)C(=O)N2CCC[C@H]2C(=O)N[C@@H](CC(C)C)C(=O)N2CCC[C@H]2C(=O)N[C@@H](Cc2c[nH]c3ccccc23)C(=O)N[C@@H](CO)C(=O)N[C@@H](Cc2csc3ccccc23)C(=O)N1C [Example 1052] ({CH2CO}-Y[NMeA]NHPLPWS[Bta][NMeNle][NMeNle]RCG-NH2; thioether N-14) |  | > 30.5 | > 74.3
